Reference: EP0381345B1, “Aqueous liquid desmopressin-CMC pharmaceutical composition” (CORINT, LTD., priority 1989, dated 1990)
Marks after values point to notes of the source that are not given here.

Legend:
in vivo = settings: male, rat, sc, pH 4
Normal test subjects = settings: in vivo
Description: Normal test subjects were loaded with 1.5% body weight of water under constantly maintained conditions, with urine being collected every 30 minutes, as described by J.H. Cort et al., Kidney International. 8:292, 1975, and then they were administered dDAVP intranasally, using a standard 0.1 mg/ml formulation obtained from Ferring AB of Malmo. A portion of the dDAVP was set aside, while Na-CMC was added to another portion to form a solution having a CMC:dDAVP weight ratio of 100:1.

[1] = in vivo, iv; cited from earlier work

NC(=O)CC[C@@H]1NC(=O)[C@H](Cc2ccccc2)NC(=O)[C@H](Cc2ccc(O)cc2)NC(=O)CCSSC[C@@H](C(=O)N2CCC[C@H]2C(=O)N[C@H](CCCN=C(N)N)C(=O)NCC(N)=O)NC(=O)[C@H](CC(N)=O)NC1=O [dDAVP, desmopressin]
Cmax (in vivo): 0.027 ng/mL | Tmax (in vivo): 8.8 min | half-life (in vivo): 20.5 min | Peak % Inhibition of Diuretic Urine Flow (Normal test subjects): -76.7* % | half-life (T1/2) [1]: 17 to 18 min
